Test results reported in patent publication US20240216338A1, “NEW FORMULATIONS AND USES” (ALZECURE PHARMA AB, priority 2021, published 2024).
Like-named read-outs stand apart in the source and are kept apart here. Where no end group is shown, it is not given here.

Key:
healthy volunteers [1] = test: Laser algesimetry, laser evoked potentials (LEP), N2-P2 Peak-to-Peak amplitude; format: in vivo, human; conditions: for PtP Mean Difference: topical, difference from placebo, day 4 (AUC)
Description: Healthy volunteers were screened for eligibility from Day −28 to Day −2 before first treatment. During screening also, a training session (without study medication) was performed in order to introduce subjects to the testing and rating procedures. Prior to testing the laser evoked potentials (LEPs) from healthy skin, the individual Laser Pain Threshold (LPT) was be determined for each volunteer.
(§1) At Day 1, Areas 1-4 were treated with 1 ml of the Compound 1 Gel (0.05 ml/cm^2) or placebo and were tested for changes in LEP-amplitudes and Visual Analog Scale Rating of Pain (VAS-P). Assessments were performed before and after (investigational medicinal product) IMP application. At Days 2 and 3, LEPs and VAS-P assessments will also be performed before and 1 h after the second and third application of IMP at the same time as on Day 1 (±1 h). At test Day 4, LEPs and VAS-P were evaluated for areas 1-4 at 1, 6 and 9 h after the 4th IMP application.
At the 2 h time point on Day 4, skin areas 5 and 6 will be UVR irradiated with 2 MED. LEPs, VAS-P, erythema (by skin reflection spectrometry (SRS)) and pin prick hyperalgesia (by weighted needle threshold (WNT)) were evaluated before and 1, 2, 3, 6 and 9 h after UVR. At the same time points, anti-inflammatory effects on the areas of UVR will be evaluated by SRS with the a-value being the measure of “redness”. […] One hour after IMP application and 24±1 h after UVR, LEPs and VAS-Pain were evaluated on areas 1-6. In addition, erythema (SRS) and pin prick hyperalgesia (WNT) were evaluated on areas 5 and 6. […]
Laser algesimetry is an experimental induction of pain by means of a contact-free thermo-nociceptive laser beam with a constant short duration (ms) and individually adjusted intensity above the pain threshold (determined at Screening). Objective and quantitative measurement of nociception is accomplished by the analysis of the contingent vertex EEG event-related potentials (somatosensory/radiant heat ERPs).
The study effects of the study medications (the Compound 1 Gel and placebo) were measured as a reduction in the PtP amplitude. […]

healthy volunteers [2] = test: VAS-Pain (post-laser pain); format: in vivo, human; conditions: for Mean (LEP induced VAS pain): n=24; for VAS Mean Difference: topical, difference from placebo, day 4 (AUC)
Description: as §1
At the 2 h time point on Day 4, skin areas 5 and 6 will be UVR irradiated with 2 MED. LEPs, VAS-P, erythema (by skin reflection spectrometry (SRS)) and pin prick hyperalgesia (by weighted needle threshold (WNT)) were evaluated before and 1, 2, 3, 6 and 9 h after UVR. At the same time points, anti-inflammatory effects on the areas of UVR will be evaluated by SRS with the a-value being the measure of “redness”. Subjects returned on Day 5 for the 5th IMP application. One hour after IMP application and 24±1 h after UVR, LEPs and VAS-Pain were evaluated on areas 1-6. In addition, erythema (SRS) and pin prick hyperalgesia (WNT) were evaluated on areas 5 and 6. Subjects returned for a follow-up visit at Day 9 (±1).
VAS-Pain is a subjective assessment of pain, which was used for all skin conditions. Electronic nociceptive scoring with electronic 100-mm visual analog scales (VASs) for post-laser pain (VAS-P) was assessed on a tablet PC, which allowed the subject to discriminate pain severity between no pain and strong pain using a 0 to 100 mm scale. The measurements were taken after each laser session—summarizing the overall impression of the “painfulness” of the whole session.
The statistical analysis was based on the evaluation of treatment related differences at the individual time points and comparison of the AUC (Area Under the Curve) parameter derived from the efficacy endpoints.
The timepoints to be included in the calculation of the AUC depended on the objective. • 1. For evaluating objective a) and b) (treatment areas 1-4), two AUC calculations were used • a. All evaluations at 1 h after IMP application at Days 1-5, the assessment at predose on Day 1 served as reference. • b. Evaluations at all timepoints at Day 4 and before IMP application on Day 5 • 2. For evaluating objective c) and d) all timepoints at Day 4 and the assessments before IMP application on Day 5 will be included in the calculation of the AUC related to treatment areas (treatment area 5 and 6).
Those parameters were analysed using a linear mixed regression model. The regression included the classification variable treatment (A1, A2, B1 and B2 resp. A3 and B3) and the corresponding baseline value (pre dose measurement on normal skin) as fixed effects and the intercept over the subjects as a random effect.
All treatment differences with 95% confidence intervals were estimated from this model. The null-hypotheses that these differences are equal to zero (no difference between active treatments and placebo) were tested at the 5% level against the two-sided alternatives.
Data used from study described in Example 2 for calculating Cohen's D were taken at the 1, 6 and 9 hour time points on day 4 of the study and are shown in the table below. The standard deviation (SD) was derived from the standard error (SE) taking into account the sample size of n=24.

[3] = test system: patients undergoing surgical removal of a mandibular third molar; test: Molar extraction study (legacy), oral AZD1386, pain intensity VAS; format: in vivo, human; conditions: 95 mg oral vs placebo
Description: This was a single dose, randomised, double-blind, double dummy, placebo- and Naproxen controlled study to investigate the analgesic efficacy of AZD1386 95 mg in patients undergoing surgical removal of a partially or completely impacted mandibular third molar, where bone removal was judged to be needed. Naproxen 500 mg was included as a treatment arm, for assay sensitivity only.
Patients requesting pain relief, due to pain from the dental surgical area, within 6 hours after the end of the administration of the local anaesthetic (last anaesthetic dose) were randomised to 1 of 3 treatment arms: 40 patients received AZD1386 95 mg oral solution and Naproxen placebo capsule, 40 patients received AZD1386 placebo oral solution and Naproxen placebo capsule and 23 patients received AZD1386 placebo oral solution and Naproxen 500 mg (for assay sensitivity only). A visual Analogue Scale (VAS) was used for the assessment of pain intensity and pain on jaw movement. The VAS consists of an ungraduated 100 mm horizontal line with the left end (0 mm) marked “No pain” and the right end (100 mm) marked “Worst pain imaginable”. The patient indicated his/her present pain intensity and pain on jaw movement by drawing a vertical line across the scale on paper CRF pages. The pain intensity was rated by the patients immediately prior to administration of the investigational product, and subsequent assessments were performed at 15 min, 30 min, 45 min, 1 h, 1 h15 min, 1 h30 min, 1 h45 min, 2 h, 2 h30 min, 3 h, 4 h, 5 h, 6 h, 7 h, and 8 h after the start of administration of the investigational product.

healthy volunteers [4] = conditions: for Cohen's d, VAS (0-5 min): Capsaicin, 95 mg oral vs placebo
[5] = oral medication; Quiding et al. PAIN 154 (2013); cited from earlier work
healthy volunteers [6] = test: tolerability in the clinical study; conditions: normal skin, skin with a compromised barrier function and inflamed skin
healthy volunteers [7] = conditions: difference from placebo, cited from earlier work
healthy volunteers [8] = conditions: difference from placebo, cited from earlier work; remark: listed apart in the source
mice = conditions: topical, WO 2018/048779; cited from earlier work
[9] = Duloxetin 60 mg (oral), Schaffler et al. (2017)
[10] = Pregabalin 150 mg (oral), Schaffler et al. (2017)
[11] = Etoricoxib 90 mg (oral), Schaffler et al. (2013)
[12] = Tramadol 100 mg (oral), Schaffler et al. (2013)
[13] = Lacosamide 60 mg (oral), Schaffler et al. (2017)

C[C@H](NC(=O)Cn1cnc2ccc(F)c(F)c21)c1ccc(C(C)(C)C)cc1 [Compound 1]
PtP Mean Difference (healthy volunteers [1]; normal skin): 6.8 μV | analgesic effects of topical treatment (healthy volunteers [1]; normal, optimized and UVR inflamed skin): highly superior to placebo | PtP Mean Difference (healthy volunteers [1]; optimised skin): 9.1 μV | Mean (LEP induced VAS pain) (healthy volunteers [2]; Day 4, 1 h, Normal skin): 32.63 mm | Mean (LEP induced VAS pain) (healthy volunteers [2]; Day 4, 1 h, Optimized skin): 22.56 mm | Mean (LEP induced VAS pain) (healthy volunteers [2]; Day 4, 6 h, Normal skin): 32.41 mm | Mean (LEP induced VAS pain) (healthy volunteers [2]; Day 4, 6 h, Optimized skin): 28.01 mm | Mean (LEP induced VAS pain) (healthy volunteers [2]; Day 4, 9 h, Normal skin): 35.64 mm | Mean (LEP induced VAS pain) (healthy volunteers [2]; Day 4, 9 h, Optimized skin): 32.27 mm | VAS Mean Difference (healthy volunteers [2]; normal skin): 13.2 mm | VAS Mean Difference (healthy volunteers [2]; optimised skin): 18.7 mm | Cohen's d, VAS (vs basel.) ([3]; 01:00 h after IMP): 0.66 | Cohen's d, VAS (vs basel.) ([3]; 01:30 h after IMP): 0.12 | Cohen's d, VAS (vs basel.) ([3]; 02:30 h after IMP): in favour | Cohen's d, VAS (vs basel.) ([3]; 03:00 h after IMP): in favour | Cohen's d, VAS (vs basel.) ([3]; 04:00 h after IMP): in favour | Cohen's d, VAS (vs basel.) ([3]; 05:00 h after IMP): in favour | Cohen's d, VAS (vs basel.) ([3]; 06:00 h after IMP): in favour | Cohen's d, VAS (0-5 min) (healthy volunteers [4]; 01:08 h after IMP): 0.04 | Cohen's d, VAS (0-5 min) (healthy volunteers [4]; 01:38 h after IMP, listed as AZD1386): 0.3 | Cohen's d, VAS (0-5 min) (healthy volunteers [4]; 02:38 h after IMP): 0.06 | Cohen's d, VAS (0-5 min) (healthy volunteers [4]; 03:38 h after IMP): 0.22 | Cohen's d, VAS (0-5 min) (healthy volunteers [4]; 05:08 h after IMP): 0.15 | time of significant analgesic effects after oral administration (healthy volunteers [4]; oral, consistent across the two legacy studies): 1 to 1.5 h | liver enzymes [5]: elevations in liver enzymes | tolerability (healthy volunteers [6]): well tolerated

CNCC[C@H](Oc1cccc2ccccc12)c1cccs1 [Duloxetin]
PtP Mean Difference (healthy volunteers [7]; [9]): 1.7 μV | VAS Mean Difference (healthy volunteers [8]; [9]): 2.2 mm

CC(C)C[C@H](CN)CC(=O)O [Pregabalin]
PtP Mean Difference (healthy volunteers [7]; [10]): 2.7 μV | VAS Mean Difference (healthy volunteers [8]; [10]): 9.1 mm

CC(C)(C)c1ccc(/C=C/C(=O)Nc2ccc3c(c2)OCCO3)cc1 [AMG9810]
capsaicin-induced wound licking (mice): reduced

Cc1ccc(-c2ncc(Cl)cc2-c2ccc(S(C)(=O)=O)cc2)cn1 [Etoricoxib]
PtP Mean Difference (healthy volunteers [7]; [11]): 0.2 μV | VAS Mean Difference (healthy volunteers [8]; [11]): 1.2 mm

COc1cccc(C2(O)CCCCC2CN(C)C)c1 (centres unmarked) [Tramadol]
PtP Mean Difference (healthy volunteers [7]; [12]): 4.5 μV | VAS Mean Difference (healthy volunteers [8]; [12]): 7.1 mm

COC[C@@H](NC(C)=O)C(=O)NCc1ccccc1 [Lacosamide]
PtP Mean Difference (healthy volunteers [7]; [13]): 0.5 μV | VAS Mean Difference (healthy volunteers [8]; [13]): 2.1 mm

QRFSR [opiorphin]
capsaicin-induced wound licking (mice): reduced
